Assay results as given in US20230167155A1, “COMPOSITIONS AND METHODS” (KING'S COLLEGE LONDON, priority 2020, published 2023).
Entries after “also recorded” stand apart in the source; their conditions may differ. [ ]: non-standard residue; d: D form. The star is where a group is joined. Cha = N[C@@H](CC1CCCCC1)C(=O)O; Orn = NCCC[C@H](N)C(=O)O; 2Furoyl = O=C(c1ccco1)*; Mpa = O=C(O)CCS

What was measured:
C57BL/6 mice [1] = assay: Delayed type hypersensitivity, contact sensitivity to oxazolone (ear swelling); assay type: in vivo, mouse; settings: WT mice, reagent at second exposure to oxazolone; for ear swelling: ear thickness 24 hours later
Procedure: C57BL/6 mice were topically sensitised with oxazolone on the shaved abdomen on day 0. Treatment with either saline, PTL060 (10 mg/g), equimolar PTL0GC-1 or equimolar *3-MP was given on day 3 and day 5, the last immediately prior to re-challenge with oxazolone onto the right ear. The left ear was treated with vehicle alone. On day 6, the difference in swelling of the right and left ears was measured and is presented as D mean ear thickness.
This example uses a model of contact hypersensitivity. Here, mice are challenged on the abdomen with the contact sensitizer oxazolone, before a re-challenge […] on both sides of the ear with oxazolone (on the right) or vehicle alone (on the left).
Swelling of the ears, measured with a micrometer, reflects the influx of monocytes/macrophages and T cells in a typical delayed-type hypersensitivity (DTH) response.
FIG. 19: Model of DTH involving contact sensitivity to oxazolone. WT mice were administered a PAR-1 agonist or antagonist at the point of second exposure to oxazolone, before ear thickness was assessed 24 hours later, and mice sacrificed for immunohistological analysis of cross sections of the affected ears, to determine the proportional area occupied by CD68+ cells (macrophages). *p<0.05. **p<0.01. ***p<0.001

SOCS3 = SOCS3 expression of macrophages; assay type: cell-based
Text: This is a well-described inhibitor of IFNγ signalling. In the right graph, the thrombin-induced sensitivity to IFNγ, as assessed by change in iNOS expression, is shown.

macrophages = assay: Sensitivity of macrophages to IFNγ (iNOS expression, flow cytometry); assay type: cell-based; settings: 100 microM; for enhanced sensitivity of macrophages to IFNγ induced by thrombin (iNOS): thrombin 50 iu
Procedure: In more detail, mechanistic insights: direct effect on monocyte/macrophage phenotype. Sensitivity of macrophages to IFNγ, as assessed by the proportion that express iNOS after stimulation.
The enhanced sensitivity to IFNγ induced by thrombin is inhibited by a PAR-1 antagonist—this is via expression of ABCA1 and membrane lipid rafts. […] BMM purified cells cultured in MCSF for 5 days. Cells then removed for 24 hours and incubated with thrombin (50 units) (if an antagonist or 3-mercaptopropionyl-F-Cha-Cha-RKPNDK was used cells were incubated for 2 hours with the antagonist or 3MP prior to thrombin stimulation to allow time for antagonist to dock with PAR). Cells then had media replaced with thrombin+ PAR reagent and IFN gamma at the dose described. For the PAR2 experiments it was at this point that PAR2 was added. Cells were then incubated for 24 further hours and then analysed by flow cytometry for iNOS. Pure PAR-1 antagonist (αagonist)=FLLRN; Pure PAR-2 agonist=2-Furoyl-LIGRLO-amide; 3-MP=3-mercaptopropionyl-F-Cha-Cha-RKPNDK; All used at 100 microM. Thrombin used at 50 iu

[2] = system: Mouse primary smooth muscle cells (SMCs) or endothelial cells (EC); assay: In vitro secretion of chemokines by SMC/EC after PAR reagents; assay type: cell-based; set-up: secretion of MIF (and CCL-2) compared with PAR-1 agonists / secretion of CX3CL1 (and CCL5) compared with a PAR-1 agonist: dose or concentration left out as unconfirmed; settings: for secretion of CX3CL1 (and CCL5) compared with a PAR-1 agonist / secretion of MIF (and CCL-2) compared with PAR-1 agonists: SMC, 12 hour stimulation, 48 hour culture
Procedure: (§1) In more detail, Mechanistic insights—monocyte recruitment: In vitro secretion of chemokines by PAR-1 and PAR-2 agonists. Mouse primary smooth muscle cells (SMCs) or endothelial cells (EC) at a density of 1×10^6 cells/well of a 24-well plate were serum-starved for 24 hours before addition of FLLRN (PAR-1 […], 10 μM), 2-Furoyl-LIGRLO-Amide (PAR-2 agonist, 10 μM) or 3-MP (3-mercaptopropionyl-F-Cha-Cha-RKPNDK 10 μM) for 12 hours, following which thrombin (10 nM) was added for 1 hour, before a final 48 hours incubation in 2% FCS DMEM. Supernatants of stimulated cells were collected to measure MIF, CCL2, CCL5 and CX3CL1 using ELISA, following manufacturer's protocol.
(§2) FIG. 22: Secretion of MIF and CX3CL1 by SMC after 12 hour stimulation with either a pure PAR-1 agonist, pure PAR-2 agonist, or by 3-mercaptoproprionyl(MP)—F-Cha-Cha-RKPNDK amide, followed by 48 hour culture period. All used at […]. Patterns of secretion of CCL-2 resemble those of MIF, whereas secretion of CCL5 resembles CX3CL1.

C57BL/6 mice [3] = assay: Delayed type hypersensitivity, contact sensitivity to oxazolone (ear swelling); assay type: in vivo, mouse; settings: 10 microM/g
ABCA1 = ABCA1 expression of macrophages incubated with thrombin; assay type: cell-based; settings: titrated in during incubation of macrophages with thrombin
Text: In more detail, mechanistic insights: direct effect on monocyte/macrophage phenotype through SOCS3. To explain how 3-MP inhibits the enhanced sensitivity to IFNγ induced by thrombin.

PAR2 = target: T1, PAR2 (Homo sapiens, UniProt P55085); settings: Kawabata et al 1999, page 365; cited from earlier work
T1 sequence (P55085 26-397): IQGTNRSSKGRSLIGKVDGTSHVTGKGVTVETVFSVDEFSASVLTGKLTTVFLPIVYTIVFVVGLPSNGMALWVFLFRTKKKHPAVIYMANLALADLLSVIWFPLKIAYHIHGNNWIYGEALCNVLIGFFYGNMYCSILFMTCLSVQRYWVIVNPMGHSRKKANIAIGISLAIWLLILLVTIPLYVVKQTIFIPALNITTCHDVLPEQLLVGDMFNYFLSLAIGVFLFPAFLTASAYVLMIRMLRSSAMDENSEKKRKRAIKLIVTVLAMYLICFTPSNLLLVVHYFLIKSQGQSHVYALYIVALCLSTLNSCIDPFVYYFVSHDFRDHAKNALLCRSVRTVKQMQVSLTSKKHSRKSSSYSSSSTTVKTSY

PAR1 = target: T2, PAR1 (Homo sapiens, UniProt P25116); settings: Kawabata et al 1999, page 365; cited from earlier work
T2 sequence (P25116 22-425): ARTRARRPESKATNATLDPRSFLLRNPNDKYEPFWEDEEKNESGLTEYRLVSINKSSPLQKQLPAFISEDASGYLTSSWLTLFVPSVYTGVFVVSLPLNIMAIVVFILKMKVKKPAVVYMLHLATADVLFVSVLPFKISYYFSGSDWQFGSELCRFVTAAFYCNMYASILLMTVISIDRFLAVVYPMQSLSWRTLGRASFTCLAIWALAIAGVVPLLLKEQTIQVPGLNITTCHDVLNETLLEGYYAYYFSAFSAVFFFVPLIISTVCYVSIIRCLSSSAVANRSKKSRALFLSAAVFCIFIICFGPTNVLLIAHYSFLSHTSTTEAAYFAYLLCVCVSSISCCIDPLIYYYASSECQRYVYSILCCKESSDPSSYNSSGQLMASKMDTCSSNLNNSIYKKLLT

murine SMC = assay: Thrombin-induced secretion of chemokines by SMC with PAR reagents; assay type: cell-based, mouse; set-up: thrombin-mediated MIF (and CCL-2) secretion / thrombin-mediated CX3CL1 secretion: dose or concentration left out as unconfirmed; settings: for thrombin-mediated CX3CL1 secretion / thrombin-mediated MIF (and CCL-2) secretion: SMC, 12 hour; for thrombin-induced secretion of CX3CL1 and CCL5 reduced by: murine SMC, 10 μM, thrombin 10 nM
Procedure: as §1, with “[…] ,” for “following which thrombin (10 nM) was added for 1 hour,”
In more detail, mechanistic insights—monocyte recruitment: In vitro secretion of chemokines by thrombin—differential impact of PAR-1 antagonist and 3-mercaptopropionyl-F-Cha-Cha-RKPNDK. Secretion of chemokines from murine SMC after stimulation with thrombin alone (nil), or in presence of a pure PAR-1 antagonist, or 3-MP*.
as §2
Chemokines measured 48 hours later. Secretion of CCL-2 resembles that of MIF, whereas secretion of CCL5 resembles CX3CL1.

ApoE−/− mice = settings: 30-week-old animals; cited from earlier work
[4] = target: T3, protease activated receptor 1 (PAR-1) (UniProt P30558)
T3 sequence: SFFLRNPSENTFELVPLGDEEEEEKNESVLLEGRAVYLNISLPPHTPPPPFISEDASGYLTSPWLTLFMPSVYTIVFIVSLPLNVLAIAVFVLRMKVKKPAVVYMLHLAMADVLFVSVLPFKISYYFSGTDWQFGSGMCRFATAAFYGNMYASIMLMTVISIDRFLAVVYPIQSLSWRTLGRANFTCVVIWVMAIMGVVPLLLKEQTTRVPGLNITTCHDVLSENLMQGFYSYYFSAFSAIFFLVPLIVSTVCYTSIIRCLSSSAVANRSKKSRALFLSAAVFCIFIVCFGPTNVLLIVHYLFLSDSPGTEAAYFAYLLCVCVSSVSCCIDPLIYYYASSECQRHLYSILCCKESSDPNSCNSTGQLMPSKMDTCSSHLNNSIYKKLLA

| Molecule | ear swelling (C57BL/6 mice [1]) | SOCS3 expression (SOCS3) | enhanced sensitivity of macrophages to IFNγ induced by thrombin (iNOS) (macrophages) | secretion of CX3CL1 (and CCL5) compared with a PAR-1 agonist [2] | secretion of MIF (and CCL-2) compared with PAR-1 agonists [2] | thrombin-mediated CX3CL1 secretion (murine SMC) | thrombin-mediated MIF (and CCL-2) secretion (murine SMC) | thrombin-induced secretion of CX3CL1 and CCL5 reduced by (murine SMC) | also measured |
| --- | --- | --- | --- | --- | --- | --- | --- | --- | --- |
| 2-Furoyl-LIGRLO-amide (2Furoyl-LIGRL[Orn]-NH2) [PAR-2 agonist] | inhibits | induces SOCS3 expression | reduces the sensitivity of macrophages to IFNγ induced by thrombin; also recorded: dampens the enhanced sensitivity | stimulated better | less so | – | – | – | – |
| 3-mercaptopropionyl-Phe-Cha-Cha-Arg-Lys-Pro-Asn-Asp-Lys-NH2 ([Mpa]F[Cha][Cha]RKPNDK-NH2; SMILES N=C(N)NCCC[C@H](NC(=O)[C@H](CC1CCCCC1)NC(=O)[C@H](CC1CCCCC1)NC(=O)[C@H](Cc1ccccc1)NC(=O)CCS)C(=O)N[C@@H](CCCCN)C(=O)N1CCC[C@H]1C(=O)N[C@@H](CC(N)=O)C(=O)N[C@@H](CC(=O)O)C(=O)N[C@@H](CCCCN)C(N)=O) [3-MP, parental untailed compound of PTL032 and PTL0GC-1] | inhibits ear swelling and infiltration by CD68+ cells better than when either a pure PAR-1 antagonist or PAR-2 agonist are administered separately | induces SOCS3 expression | more potent than a pure PAR-1 antagonist | stimulated better | less so | maintained | inhibited equally | 0-10% | infiltration by CD68+ cells compared with both reagents together (C57BL/6 mice [1]): inhibits CD68 infiltration better than when both reagents are administered together; monocyte recruitment and phenotype in DTH (C57BL/6 mice [3]): reduced monocyte recruitment with switched phenotype; background response of control macrophages to IFNγ (macrophages): inhibits the background response of control macrophages to IFNγ; thrombin-induced ABCA1 expression (ABCA1): inhibits thrombin-induced ABCA1 expression; activity at PAR2 (PAR2): agonist; activity at PAR1 (PAR1): antagonist; behaviour in chemokine secretion assay ([2]; 10 μM, 12 hours, MIF, CCL2, CCL5, CX3CL1 by ELISA): behaves as a pure PAR-2 agonist |
| N=C(N)c1ccc(CNC(=O)[C@@H]2CCN2C(=O)[C@H](NCC(=O)O)C2CCCCC2)cc1 [Megalatran] | – | – | – | – | – | – | – | – | burden of advanced atheromatous lesions (ApoE−/− mice): reduced burden of advanced atheromatous lesions |
| FLLRN [PAR-1 antagonist] | inhibited | – | inhibited | – | – | inhibited | inhibited equally | 50% | – |
| FSLLRY-NH2 trifluoroacetate salt [PAR-2 antagonist] | exacerbates | – | – | – | – | – | – | – | – |
| thrombin | – | – | – | – | – | – | – | – | MIF and CCL2 production by cultured mouse SMCs after stimulation by thrombin (ELISA) [4]: thrombin-mediated chemokine expression was primarily via PAR-1 |
